The record followed here is patent US5747006A, “Skin whitener composition containing acerola cherry fermentate” (Amway Corporation, priority 1997, dated 1998).

This test concerns tyrosinase from mushroom. The test can be described thus: Inhibition of tyrosinase, absorbancy at 475 nm with tyrosine substrate. The test is classed as biochemical. The following applies: for percent inhibition of the tyrosinase: pH 6.8 sodium acetate buffer, Example 1. As for the experimental part:
A buffer solution A containing 50 mM sodium acetate was prepared to yield a 6.8 pH.
A test tube was charged with 2.7 ml of buffer solution A and 0.4 ml. water to define a blank. Similarly, another test tube was charged with 2.7 ml. of the tyrosine solution, 0.3 ml of water, and 0.1 ml of the tyrosinase solution to define a reference. The absorbency of the reference was measured at 475 nm over a period of time with a spectrophotometer and the absorbancy was set to zero.
A test tube was charged with 2.7 ml of the tyrosine solution, 0.1 ml. of the tyrosinase solution and 0.02% of mercaptosuccinic acid together with 0.5% acerola cherry fermentate.

Take `O=c1cc(CO)occ1O` [Comparative Example 2, kojic acid]: the “Percent Inhibition (0.5 hours)” value (0.5 hours, Table 1) came to 91. Besides, the “Percent Inhibition (24 hours)” value (24 hours, Table 1) is listed as 92.

As to `O=C(O)CC(S)C(=O)O` (stereo not shown) [compound 1, mercaptosuccinic acid], the “percent inhibition of the tyrosinase” value (0.5 hours) worked out at 95% and the “percent inhibition of the tyrosinase” value (24 hours) came out at 77%.
